Experimental data published in the supplement of paper PMC11208160.

Assay: recombinant UMI read abundance after kanamycin selection (control-corrected) (log10(CPM+1)); higher = more efficient recombination; extreme values may be limits of the assay; sequences stand for … in AGTGCAGAGAAAATCGGCCAGTTTTCTCTGCCTGCAGTCCGCATGCCGTGGGACCCCTTGGGTTCTAACCTGTTGCCTAGATTTATGCAGCGGACTGCCTTTCTCCCAAAGTGATAAACCGG…AGGTTGGTTTCACT; site = the 11-nt donor
How it was run: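 For the IS621 bridge recombinase, a pooled Escherichia coli screen tested donor and donor-binding-loop pairs. Cells received the pair library together with a target plasmid encoding a fixed target and T7-inducible recombinase, then went onto IPTG (0.07 mM) plus kanamycin or unselected plates in duplicate. After PCR across the donor–target junction and sequencing, recombinant UMI counts were normalized to CPM, averaged, and scaled by control-derived factors. Each value is given as log10(CPM+1).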
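Further: IS621 bridge recombinase in Escherichia coli cells against a fixed T5 target plasmid.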

“CCCTTCTCATGGACCGGTTTTCCCGGTAATCCGTATTTGGG (site CCCTTCTCTTC)” and “CCCTTCTCATGGACCGGTTTTCCCGGTAATCCGTATTTGGG (site CCCTTGTCTCC)” are within 0.2 log units of each other in “recombinant UMI read abundance (log10)” value: 0.00791 for the first, 0.0418 for the second.

“CCCTTCTCATGGACCGGTTTTCCCGGTAATCCGTATTTGGG (site CCCTTTTCTCC)” and “CCCTTCTCATGGACCGGTTTTCCCGGTAATCCGTATTTGGG (site CCGTTCTCTCC)” are within 0.2 log units of each other in “recombinant UMI read abundance (log10)” value: 0.00608 for the first, 0 for the second.

“CCCTTCTCATGGACCGGTTTTCCCGGTAATCCGTATTTGGG (site CCTTTCTCTCC)” and “CCCTTCTCATGGACCGGTTTTCCCGGTAATCCGTATTTGGG (site CGCTTCTCTCC)” are within 0.2 log units of each other in “recombinant UMI read abundance (log10)” value: 0.00766 for the first, 0 for the second.

“CCCTTCTCATGGACCGGTTTTCCCGGTAATCCGTATTTGGG (site CTCTTCTCTCC)” and “CCCTTCTCATGGACCGGTTTTCCCGGTAATCCGTATTTGGG (site GCCTTCTCTCC)” are within 0.2 log units of each other in “recombinant UMI read abundance (log10)” value: 0.0147 for the first, 0.00558 for the second.

Compared with “CCCTTCTCATGGACCGGTTTTCCCGGTAATCCGTATTTGGG (site TCCTTCTCTCC)”, “CCCTTCTCATGGACCGGTTTTCCCGGTAATCCGTATTTGTG (site CCCTTCTCTCA)” is higher in “recombinant UMI read abundance (log10)” value: 0.0111 for the first, 0.583 for the second.

Going from “CCCTTCTCATGGACCGGTTTTCCCGGTAATCCGTATTTGTG (site CCCTTCTCTCC)” to “CCCTTCTCATGGACCGGTTTTCCCGGTAATCCGTATTTGTG (site CCCTTCTCTCG)”, the “recombinant UMI read abundance (log10)” value rises from 0.0231 to 0.995.

“CCCTTCTCATGGACCGGTTTTCCCGGTAATCCGTATTTGTG (site CCCTTCTCTCT)” and “CCCTTTTCATGGACCGGTTTTCCCGGTAATCCGTATTTGGG (site CCCTTATCTCC)” are within 0.2 log units of each other in “recombinant UMI read abundance (log10)” value: 0.00643 for the first, 0.00602 for the second.

“CCCTTTTCATGGACCGGTTTTCCCGGTAATCCGTATTTGGG (site CCCTTCTCTCC)” and “CCCTTTTCATGGACCGGTTTTCCCGGTAATCCGTATTTGGG (site CCCTTGTCTCC)” are within 0.2 log units of each other in “recombinant UMI read abundance (log10)” value: 0.0124 for the first, 0.0108 for the second.

“CCCTTTTCATGGACCGGTTTTCCCGGTAATCCGTATTTGGG (site CCCTTTTCTCC)” and “CCGAAGCCATGGACCGGTTTTCCCGGTAATCCGTATTTGGG (site ACGAAGCCTCC)” are within 0.2 log units of each other in “recombinant UMI read abundance (log10)” value: 0 for the first, 0.0168 for the second.

“CCGAAGCCATGGACCGGTTTTCCCGGTAATCCGTATTTGGG (site CCGAAGCCTCC)” and “CCGAAGCCATGGACCGGTTTTCCCGGTAATCCGTATTTGGG (site GCGAAGCCTCC)” are within 0.2 log units of each other in “recombinant UMI read abundance (log10)” value: 0.0077 for the first, 0.0226 for the second.

Compared with “CCGAAGCCATGGACCGGTTTTCCCGGTAATCCGTATTTGGG (site TCGAAGCCTCC)”, “CCGAGTTCATGGACCGGTTTTCCCGGTAATCCGTATTTGTT (site CCGAGTTCTAA)” is higher in “recombinant UMI read abundance (log10)” value: 0.0139 for the first, 0.501 for the second.

Going from “CCGCCCGCATGGACCGGTTTTCCCGGTAATCCGTATTTGTA (site CCGCCCGCTTA)” to “CCGGAACCATGGACCGGTTTTCCCGGTAATCCGTATTTGAT (site CAGGAACCTAT)”, the “recombinant UMI read abundance (log10)” value falls from 1.02 to 0.

“CCGGAACCATGGACCGGTTTTCCCGGTAATCCGTATTTGAT (site CCGGAACCTAT)” and “CCGGAACCATGGACCGGTTTTCCCGGTAATCCGTATTTGAT (site CGGGAACCTAT)” are the same in “recombinant UMI read abundance (log10)” value: 0 for the first, 0 for the second.

“CCGGAACCATGGACCGGTTTTCCCGGTAATCCGTATTTGAT (site CTGGAACCTAT)” and “CCGGGACCATGGACCGGTTTTCCCGGTAATCCGTATTTGAG (site CCGGGACCTCT)” are within 0.2 log units of each other in “recombinant UMI read abundance (log10)” value: 0.00208 for the first, 0 for the second.

Going from “CCGGGCCCATGGACCGGTTTTCCCGGTAATCCGTATTTGTA (site CCGGGCCCTTA)” to “CCGTAATCATGGACCGGTTTTCCCGGTAATCCGTATTTGCG (site CCGTAATCTCG)”, the “recombinant UMI read abundance (log10)” value rises from 0.0269 to 1.7.

Compared with “CCGTATACATGGACCGGTTTTCCCGGTAATCCGTATTTGAT (site CCGTATACTAT)”, “CCGTCATCATGGACCGGTTTTCCCGGTAATCCGTATTTGAT (site CCGTCATCTAT)” is lower in “recombinant UMI read abundance (log10)” value: 0.449 for the first, 0.00671 for the second.

Going from “CCGTCTGCATGGACCGGTTTTCCCGGTAATCCGTATTTGCT (site CCGTCTGCTAG)” to “CCGTGTACATGGACCGGTTTTCCCGGTAATCCGTATTTGCT (site CCGTATACTAG)”, the “recombinant UMI read abundance (log10)” value falls from 0.241 to 0.0403.

Going from “CCGTGTACATGGACCGGTTTTCCCGGTAATCCGTATTTGCT (site CCGTCTACTAG)” to “CCGTGTACATGGACCGGTTTTCCCGGTAATCCGTATTTGCT (site CCGTGTACTAG)”, the “recombinant UMI read abundance (log10)” value rises from 0.00869 to 0.439.

Going from “CCGTGTACATGGACCGGTTTTCCCGGTAATCCGTATTTGCT (site CCGTTTACTAG)” to “CCGTGTGCATGGACCGGTTTTCCCGGTAATCCGTATTTGAC (site CCGTGTGCTGT)”, the “recombinant UMI read abundance (log10)” value rises from 0 to 1.

“CCGTTAACATGGACCGGTTTTCCCGGTAATCCGTATTTGTG (site CCGTTAACTCA)” and “CCGTTAACATGGACCGGTTTTCCCGGTAATCCGTATTTGTG (site CCGTTACCTCA)” are within 0.2 log units of each other in “recombinant UMI read abundance (log10)” value: 0.0455 for the first, 0.0226 for the second.

“CCGTTAACATGGACCGGTTTTCCCGGTAATCCGTATTTGTG (site CCGTTAGCTCA)” and “CCGTTAACATGGACCGGTTTTCCCGGTAATCCGTATTTGTG (site CCGTTATCTCA)” are within 0.2 log units of each other in “recombinant UMI read abundance (log10)” value: 0.182 for the first, 0.00955 for the second.

“CCGTTAGCATGGACCGGTTTTCCCGGTAATCCGTATTTGGG (site CCGTTAGCTCA)” and “CCGTTAGCATGGACCGGTTTTCCCGGTAATCCGTATTTGGG (site CCGTTAGCTCC)” are within 0.2 log units of each other in “recombinant UMI read abundance (log10)” value: 0.0109 for the first, 0.00956 for the second.

“CCGTTAGCATGGACCGGTTTTCCCGGTAATCCGTATTTGGG (site CCGTTAGCTCG)” and “CCGTTAGCATGGACCGGTTTTCCCGGTAATCCGTATTTGGG (site CCGTTAGCTCT)” are the same in “recombinant UMI read abundance (log10)” value: 0 for the first, 0 for the second.

“CCGTTTACATGGACCGGTTTTCCCGGTAATCCGTATTTGCT (site ACGTTTACTAG)” and “CCGTTTACATGGACCGGTTTTCCCGGTAATCCGTATTTGCT (site CAGTTTACTAG)” are the same in “recombinant UMI read abundance (log10)” value: 0 for the first, 0 for the second.

“CCGTTTACATGGACCGGTTTTCCCGGTAATCCGTATTTGCT (site CCATTTACTAG)” and “CCGTTTACATGGACCGGTTTTCCCGGTAATCCGTATTTGCT (site CCCTTTACTAG)” are the same in “recombinant UMI read abundance (log10)” value: 0 for the first, 0 for the second.

“CCGTTTACATGGACCGGTTTTCCCGGTAATCCGTATTTGCT (site CCGATTACTAG)” and “CCGTTTACATGGACCGGTTTTCCCGGTAATCCGTATTTGCT (site CCGCTTACTAG)” are the same in “recombinant UMI read abundance (log10)” value: 0 for the first, 0 for the second.

“CCGTTTACATGGACCGGTTTTCCCGGTAATCCGTATTTGCT (site CCGGTTACTAG)” and “CCGTTTACATGGACCGGTTTTCCCGGTAATCCGTATTTGCT (site CCGTATACTAG)” are the same in “recombinant UMI read abundance (log10)” value: 0 for the first, 0 for the second.

“CCGTTTACATGGACCGGTTTTCCCGGTAATCCGTATTTGCT (site CCGTCTACTAG)” and “CCGTTTACATGGACCGGTTTTCCCGGTAATCCGTATTTGCT (site CCGTGTACTAG)” are the same in “recombinant UMI read abundance (log10)” value: 0 for the first, 0 for the second.

“CCGTTTACATGGACCGGTTTTCCCGGTAATCCGTATTTGCT (site CCGTTAACTAG)” and “CCGTTTACATGGACCGGTTTTCCCGGTAATCCGTATTTGCT (site CCGTTCACTAG)” are within 0.2 log units of each other in “recombinant UMI read abundance (log10)” value: 0 for the first, 0.00422 for the second.

“CCGTTTACATGGACCGGTTTTCCCGGTAATCCGTATTTGCT (site CCGTTGACTAG)” and “CCGTTTACATGGACCGGTTTTCCCGGTAATCCGTATTTGCT (site CCGTTTACTAA)” are the same in “recombinant UMI read abundance (log10)” value: 0 for the first, 0 for the second.

“CCGTTTACATGGACCGGTTTTCCCGGTAATCCGTATTTGCT (site CCGTTTACTAC)” and “CCGTTTACATGGACCGGTTTTCCCGGTAATCCGTATTTGCT (site CCGTTTACTAG)” are the same in “recombinant UMI read abundance (log10)” value: 0 for the first, 0 for the second.

“CCGTTTACATGGACCGGTTTTCCCGGTAATCCGTATTTGCT (site CCGTTTACTAT)” and “CCGTTTACATGGACCGGTTTTCCCGGTAATCCGTATTTGCT (site CCGTTTACTCG)” are the same in “recombinant UMI read abundance (log10)” value: 0 for the first, 0 for the second.

“CCGTTTACATGGACCGGTTTTCCCGGTAATCCGTATTTGCT (site CCGTTTACTGG)” and “CCGTTTACATGGACCGGTTTTCCCGGTAATCCGTATTTGCT (site CCGTTTACTTG)” are the same in “recombinant UMI read abundance (log10)” value: 0 for the first, 0 for the second.

“CCGTTTACATGGACCGGTTTTCCCGGTAATCCGTATTTGCT (site CCGTTTCCTAG)” and “CCGTTTACATGGACCGGTTTTCCCGGTAATCCGTATTTGCT (site CCGTTTGCTAG)” are within 0.2 log units of each other in “recombinant UMI read abundance (log10)” value: 0 for the first, 0.00881 for the second.

“CCGTTTACATGGACCGGTTTTCCCGGTAATCCGTATTTGCT (site CCGTTTTCTAG)” and “CCGTTTACATGGACCGGTTTTCCCGGTAATCCGTATTTGCT (site CCTTTTACTAG)” are the same in “recombinant UMI read abundance (log10)” value: 0 for the first, 0 for the second.

“CCGTTTACATGGACCGGTTTTCCCGGTAATCCGTATTTGCT (site CGGTTTACTAG)” and “CCGTTTACATGGACCGGTTTTCCCGGTAATCCGTATTTGCT (site CTGTTTACTAG)” are the same in “recombinant UMI read abundance (log10)” value: 0 for the first, 0 for the second.

“CCGTTTACATGGACCGGTTTTCCCGGTAATCCGTATTTGCT (site GCGTTTACTAG)” and “CCGTTTACATGGACCGGTTTTCCCGGTAATCCGTATTTGCT (site TCGTTTACTAG)” are the same in “recombinant UMI read abundance (log10)” value: 0 for the first, 0 for the second.

For “CCGTTTCCATGGACCGGTTTTCCCGGTAATCCGTATTTGCT (site CCGTTTACTAG)”, the “recombinant UMI read abundance (log10)” value was 0.
